Results: the C3SDB collision cross section collection
Structures can show the parent of a compound that is named as a salt.

conditions: [M+H-H2O]+; instrument: TW; calibrated with polyalanine and drug standards

Compound | collision cross section (N2)
Cc1cc2c(C(C)C)c(O)c(O)c(C=O)c2c(O)c1-c1c(C)cc2c(C(C)C)c(O)c(O)c(C=O)c2c1O [GOSSYPOL] | 228.1 Å²
CC1(C)CC[C@]2(C(=O)O)CC[C@]3(C)C(=CC[C@@H]4[C@@]5(C)CC[C@H](O)[C@@](C)(CO)[C@@H]5CC[C@]43C)[C@@H]2C1 [HEDERAGENIN] | 210.6 Å²
NS(=O)(=O)c1cc2c(cc1Cl)NCNS2(=O)=O [HYDROCHLOROTHIAZIDE] | 160.8 Å²
CC(C)CCC[C@@H](C)[C@H]1CC[C@H]2C3=CC[C@H]4C[C@@H](O)CC[C@]4(C)[C@H]3CC[C@]12C [LATHOSTEROL] | 204 Å²

same assay, conditions: [M+H]+; instrument: TW; calibrated with polyalanine and drug standards

Compound | collision cross section (N2)
N[C@@H](C(=O)O)[C@@H](O)[C@H](O)[C@H](O)CO [GLUCOSAMINIC ACID] | 138.8 Å²
COc1ccc(Cl)cc1C(=O)NCCc1ccc(S(=O)(=O)NC(=O)NC2CCCCC2)cc1 [GLYBURIDE] | 205.9 Å²
C[C@H]1CC[C@@H](C(C)(C)O)CC2=C1CC[C@@H]2C [GUAIOL(-)] | 146.3 Å²
NC(N)=NC(=O)Cc1c(Cl)cccc1Cl [GUANFACINE] | 148.9 Å²
CCOC(=O)c1c(C)cc(O)c(C=O)c1O [HAEMATOMMIC ACID, ETHYL ESTER] | 144 Å²
O=C(CCCN1CCC(O)(c2ccc(Cl)cc2)CC1)c1ccc(F)cc1 [HALOPERIDOL] | 191.7 Å²
Cc1nccc2c1[nH]c1ccccc12 [HARMANE] | 136.6 Å²
CCCCC(CC)CN1CN(CC(CC)CCCC)CC(C)(N)C1 (stereo unspecified) [HEXETIDINE] | 194 Å²
COc1ccc2c(c1)O[C@H]1c3ccc(OC)cc3OC[C@@H]21 [HOMOPTEROCARPIN] | 162.7 Å²
CCN(CC)CCNc1ccc(CO)c2sc3ccccc3c(=O)c12 [HYCANTHONE] | 180.4 Å²
CC[C@H]1CN2CC[C@H]1C[C@@H]2[C@@H](O)c1ccnc2ccc(OC)cc12 [HYDROQUINIDINE] | 176.7 Å²
CC(=O)[C@@]1(O)CC[C@H]2[C@@H]3CCC4=CC(=O)CC[C@]4(C)[C@H]3CC[C@@]21C [HYDROXYPROGESTERONE] | 179.9 Å²
COc1ccc2c(C)cc(=O)oc2c1 [HYMECROMONE METHYL ETHER] | 134.4 Å²
COC1=C(OC)C(=O)C(CCCCCCCCCCO)=C(C)C1=O [IDEBENONE] | 178.6 Å²
O=C([O-])Cc1cnc[nH]1 [IMIDAZOL-4-YLACETIC ACID SODIUM SALT] | 120.7 Å²
CCC(Cc1c(I)cc(I)c(N)c1I)C(=O)O (stereo unspecified) [IOPANIC ACID] | 172.7 Å²
CC(C)Oc1ccc2c(=O)c(-c3ccccc3)coc2c1 [IPRIFLAVONE] | 164.3 Å²
CCCCC1=NC2(CCCC2)C(=O)N1Cc1ccc(-c2ccccc2-c2nn[nH]n2)cc1 [IRBESARTAN] | 201.2 Å²
COc1cc(-c2coc3cc(O[C@@H]4O[C@H](CO)[C@@H](O)[C@H](O)[C@H]4O)c(OC)c(O)c3c2=O)cc(O)c1OC [IRIDIN] | 227.2 Å²
COc1cc(-c2coc3cc(OC)c(OC)c(OC)c3c2=O)cc(OC)c1OC [IRIGENIN TRIMETHYL ETHER] | 195.4 Å²
COc1cc(-c2coc3cc(O)c(OC)c(O)c3c2=O)cc(O)c1OC [IRIGENIN] | 181.6 Å²
COc1cc2occc2c2oc(=O)ccc12 [ISOBERGAPTENE] | 139.8 Å²

Compound | collision cross section (N2)
COc1cc2c(cc1OC)[C@@H]1C(=O)c3ccc4oc(C(C)C)cc4c3O[C@@H]1CO2 [ISOROTENONE] | 195.2 Å²
O=[N+]([O-])O[C@H]1CO[C@H]2[C@@H]1OC[C@H]2O[N+](=O)[O-] [ISOSORBIDE DINITRATE] | 151.6 Å²
Cc1cc(NC(=O)C2=C(O)c3ccccc3S(=O)(=O)N2C)no1 [ISOXICAM] | 170.8 Å²
CC(=O)N1CCN(c2ccc(OC[C@H]3CO[C@](Cn4ccnc4)(c4ccc(Cl)cc4Cl)O3)cc2)CC1 [KETOCONAZOLE] | 214.5 Å²
OC[C@H]1O[C@@H](n2cnc3c(NCc4ccco4)ncnc32)[C@H](O)[C@@H]1O [KINETIN RIBOSIDE] | 179 Å²
c1coc(CNc2ncnc3nc[nH]c23)c1 [KINETIN] | 144.1 Å²
Nc1nnc(-c2cccc(Cl)c2Cl)c(N)n1 [LAMOTRIGINE] | 150.6 Å²
Cc1c(OCC(F)(F)F)ccnc1CS(=O)c1nc2ccccc2[nH]1 (stereo unspecified) [LANSOPRAZOLE] | 185.8 Å²
NCCCC[C@H](N[C@@H](CCc1ccccc1)C(=O)O)C(=O)N1CCC[C@H]1C(=O)O [LISINOPRIL] | 189.7 Å²
CCCCc1nc(Cl)c(CO)n1Cc1ccc(-c2ccccc2-c2nn[nH]n2)cc1 [LOSARTAN] | 199.2 Å²
Cc1cccc(Nc2ccccc2C(=O)O)c1C [MEFENAMIC ACID] | 153.3 Å²
N[C@@H](Cc1ccc(N(CCCl)CCCl)cc1)C(=O)O [MELPHALAN] | 168.7 Å²
S=c1nc[nH]c2nc[nH]c12 [MERCAPTOPURINE] | 125.5 Å²
CC(=O)Nc1cccc(O)c1 [METACETAMOL] | 130.6 Å²
COc1cc2c(cc1OC)C(=O)OC2 [METAMECONINE] | 137.6 Å²
CC(C)NCC(O)c1cc(O)cc(O)c1 (stereo unspecified) [METAPROTERENOL] | 149.9 Å²
COc1c2c(cc3occ(-c4ccc5c(c4)OCO5)c(=O)c13)OC(C)(C)C=C2 [METHYL ROBUSTONE] | 186.9 Å²
C[C@H]1C[C@@H]2[C@H]([C@@H](O)C[C@@]3(C)[C@H]2CC[C@]3(O)C(=O)CO)[C@@]2(C)C=CC(=O)C=C12 [METHYLPREDNISOLONE] | 187.7 Å²
COCCc1ccc(OCC(O)CNC(C)C)cc1 (stereo unspecified) [METOPROLOL] | 170.7 Å²
OCCN1C[C@H](O)[C@@H](O)[C@H](O)[C@H]1CO [MIGLITOL] | 141 Å²
N=c1nc(N2CCCCC2)cc(N)n1O [MINOXIDIL] | 146.1 Å²

same assay, conditions: [M+Na]+; instrument: TW; calibrated with polyalanine and drug standards

Compound | collision cross section (N2)
O=Cc1ccccc1O[C@@H]1O[C@H](CO)[C@@H](O)[C@H](O)[C@H]1O [HELICIN] | 161.4 Å²
CC[C@H](C)[C@H]1O[C@]2(CC[C@@H]1C)C[C@@H]1C[C@@H](C/C=C(\C)[C@@H](O[C@H]3C[C@H](OC)[C@@H](O[C@H]4C[C@H](OC)[C@@H](O)[C@H](C)O4)[C@H](C)O3)[C@@H](C)/C=C/C=C3\CO[C@@H]4[C@H](O)C(C)=C[C@@H](C(=O)O1)[C@]34O)O2 [IVERMECTIN] | 292.7 Å²
C[C@H]1[C@H](C)CC[C@]2(C(=O)O)CC[C@]3(C)C(=CC[C@@H]4[C@@]5(C)C[C@@H](O)[C@H](O)[C@@](C)(CO)[C@@H]5[C@H](O)C[C@]43C)[C@H]12 [MADECASSIC ACID] | 234.8 Å²
CCOC(=O)CC(SP(=S)(OC)OC)C(=O)OCC (stereo unspecified) [MALATHION] | 171.5 Å²
